{
  "source": "patent US9078446B2",
  "about": "“Use of N-(tetrazol-4-yl)- or N-(triazol-3-yl)arylcarboxamides or their salts for controlling unwanted plants in areas of transgenic crop plants being tolerant to HPPD inhibitor herbicides” (BAYER INTELLECTUAL PROPERTY GMBH, priority 2011, dated 2015)",
  "key": {"[1]": {"target": "T1, Arabidopsis thaliana HPPD (AtHPPD) (Arabidopsis thaliana, UniProt P93836)", "T1 construct": "His6 (N); made in house; host or cells: E. coli K-12 BL21", "T1 sequence (P93836 1-445)": "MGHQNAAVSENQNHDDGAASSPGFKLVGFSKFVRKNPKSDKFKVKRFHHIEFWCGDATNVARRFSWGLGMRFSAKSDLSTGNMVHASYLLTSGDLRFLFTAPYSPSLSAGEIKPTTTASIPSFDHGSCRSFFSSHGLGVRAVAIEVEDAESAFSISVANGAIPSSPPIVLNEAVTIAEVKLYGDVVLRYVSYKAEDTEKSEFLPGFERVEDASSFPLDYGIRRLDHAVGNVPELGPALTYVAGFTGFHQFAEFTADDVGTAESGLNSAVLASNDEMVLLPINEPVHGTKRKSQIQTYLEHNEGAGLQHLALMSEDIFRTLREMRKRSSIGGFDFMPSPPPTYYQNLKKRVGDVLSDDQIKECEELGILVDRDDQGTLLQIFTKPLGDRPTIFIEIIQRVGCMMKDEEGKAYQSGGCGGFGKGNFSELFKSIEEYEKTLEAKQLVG", "assay": "Determination of HPPD activity in presence of HPPD inhibitor (percentage of inhibition)", "type": "biochemical", "conditions": "5.0×10^−6M of compound, compared to activity in absence of compound", "procedure": "(§1) The HPPD activity was checked by the standard spectrophotmetric assay (method extensively described in WO 2009/144079)\n(§2) Level of tolerance of HPPD proteins obtained from different organisms was determined according to the procedure as described in PCT/EP2010/070575.\n(§3) Table E1: Determination of Percentage of Inhibition in Presence of 5.0×10^−6M of Compound “4-137” Compared to the Activity Measured in Absence of Compound No. “4-137” With HPPD Originated from Arabidopsis thaliana (AtHPPD), Mutated Pseudomonas fluorescens PfHPPD-G336W, Avena sativa (AvHPPD), FMP27 (Derived from Kordia algicida) and FMP37 (Derived from Blepharisma japonicum)."}, "[2]": {"tested_on": "Avena sativa HPPD (AvHPPD)", "assay": "Determination of HPPD activity in presence of HPPD inhibitor (percentage of inhibition)", "type": "biochemical", "procedure": "as §1, §2, §3"}, "[3]": {"tested_on": "FMP27 (HPPD derived from Kordia algicida)", "assay": "Determination of HPPD activity in presence of HPPD inhibitor (percentage of inhibition)", "type": "biochemical", "procedure": "as §1, §2, §3"}, "[4]": {"tested_on": "FMP37 (HPPD derived from Blepharisma japonicum)", "assay": "Determination of HPPD activity in presence of HPPD inhibitor (percentage of inhibition)", "type": "biochemical", "procedure": "as §1, §2, §3"}, "[5]": {"tested_on": "mutated Pseudomonas fluorescens PfHPPD-G336W", "assay": "Determination of HPPD activity in presence of HPPD inhibitor (percentage of inhibition)", "type": "biochemical", "procedure": "as §1, §2, §3"}, "[6]": {"tested_on": "non-transformed tobacco plants (Wt)", "assay": "Symptoms due to herbicide application on tobacco plants (damage classes 0-3)", "type": "in vivo", "conditions": "25 g Al/ha, one week after application", "text": "(§4) Seeds harvested from TO transformants will be put on standard soil for germination. Three weeks later plantlets (T1) will be transferred to single pots and grown under standard cultivation conditions (PCT/EP2010/070575, published as WO 2011/076889). Two weeks later, plants were sprayed with several N-(tetrazol-4-yl)- or N-(triazol-3-yl)arylcarboxamides as defined above.\n(§5) Tables F1 to F5: Evaluation of the Symptoms Observed Due to the Application of the Herbicides on Transgenic Tobacco Plants, Expressing the Mutant Pseudomonas fluorescens HPPD G336W, the Avena HPPD (AvHPPD), the HPPD from Kordia algicida FMP27 or the HPPD from Blepharisma japonicum (FMP37), Compared to Non-Tranformed Tobacco Plants (“Wt”).\n(§6) The herbicides (with “g Al/ha” meaning “g active ingredient/ha”) were applied on 8 to 10 plants originated from 1 to 3 independent transgenic events per transgene.\n(§7) The symptoms were evaluated and classified as following: • 3=Very strong damage • 2=Strong damage • 1=Light and transient damage • 0=No damage"}, "[7]": {"tested_on": "transgenic tobacco plants expressing tolerant HPPD enzymes", "assay": "Tolerance of tobacco plants expressing tolerant HPPD enzymes (all transgenes)", "type": "in vivo", "text": "Genes coding for the selected HPPD were obtained from a member of the group of organisms consisting of Avena sativa, Pseudomonas fluorescens mutant G336W, Blepharisma japonicum and Kordia algicida and cloned into the binary vector pBin19 allowing the integration of DNA into the tobacco genome, under the control of the CaMV35S promoter. For the cloning procedures, see A2 above for Avena sativa, see B2 above for Pseudomonas fluorescens, mutant G336W, see PCT/EP2010/070567 (published as WO 2011/076882, Example 5; for Blepharisma japonicum (FMP37) and see PCT/EP2010/070575, Example 5 for Kordia algicida (FMP27). Between the sequence corresponding to the promoter and the sequence coding for the HPPD a DNA sequence coding for a transit peptide to the chloroplast was inserted, in order to add at the N-terminal extremity of the protein a target signal to allow the localization of the HPPD protein into the plant chloroplast.\nas §4, §5, §6, §7"}, "[8]": {"tested_on": "soybean plants expressing Pseudomonas fluorescens G336W mutant, FMP 27 and FMP 37", "assay": "Tolerance to HPPD inhibitors of soybean plants expressing tolerant HPPD enzymes", "type": "in vivo", "conditions": "T1 soybean plants; one week after application", "text": "Genes coding for the selected HPPD were obtained from a member of the group of organisms consisting of Blepharisma japonicum and Kordia algicida and cloned into an appropriate binary vector allowing the integration of DNA into the soybean genome, under the control of the CaMV35S promoter. For the respective cloning procedures, see WO2011076882 (PCT/EP2010/070567), Example 9; for Blepharisma japonicum (FMP37) and WO2011076889 (PCT/EP2010/070575), Example 9 for Kordia algicida (FMP27).\nBetween the sequence corresponding to the promoter and the sequence coding for the HPPD a DNA sequence coding for a transit peptide to the chloroplast was inserted, in order to add at the N-terminal extremity of the protein a target signal to allow the localization of the HPPD protein into the plant chloroplast. By using the vectors “pFCO112” (Blepharisma japonicum, WO2011076882), pFCO116 (Korida algicida, WO2011076889), and pFCO117” (see Example B2, above), soybean transformation was achieved as described in Example 10 of WO2011076882 (PCT/EP2010/070567) for Blepharisma japonicum (FMP37) and WO2011076889 (PCT/EP2010/070575) for Kordia algicida (FMP27). Seeds from TO events showing tolerance to tembotrione were harvested.\nT1 Soybean seeds were transferred to single pots and grown under standard cultivation conditions, see WO2011076882.\nTwo weeks later, plants will be sprayed with several N-(tetrazol-4-yl)- or N-(triazol-3-yl)arylcarboxamides as defined above."}},
  "data": [
    {"smiles": "Cc1c(C(=O)Nc2nnnn2C)ccc(C(F)(F)F)c1S(C)(=O)=O", "note": "[Compound 4-137]", "values": [
      {"measurement": "Inhibition %", "setting": "[1]", "result": 100, "unit": "%"},
      {"measurement": "Inhibition %", "setting": "[2]; 5.0×10^−6M of compound, compared to activity in absence of compound, AvHPPD", "result": 93, "unit": "%"},
      {"measurement": "tolerance/sensitivity of the HPPD to the inhibitor compared to Arabidopsis thaliana HPPD", "setting": "[2]; AvHPPD versus AtHPPD, identical experimental conditions", "result": "less sensitive"},
      {"measurement": "Inhibition %", "setting": "[3]; 5.0×10^−6M of compound, compared to activity in absence of compound, FMP27", "result": 90, "unit": "%"},
      {"measurement": "tolerance/sensitivity of the HPPD to the inhibitor compared to Arabidopsis thaliana HPPD", "setting": "[3]; FMP27 versus AtHPPD, identical experimental conditions", "result": "less sensitive"},
      {"measurement": "Inhibition %", "setting": "[4]; 5.0×10^−6M of compound, compared to activity in absence of compound, FMP37", "result": 82, "unit": "%"},
      {"measurement": "tolerance/sensitivity of the HPPD to the inhibitor compared to Arabidopsis thaliana HPPD", "setting": "[4]; FMP37 versus AtHPPD, identical experimental conditions", "result": "less sensitive"},
      {"measurement": "Inhibition %", "setting": "[5]; 5.0×10^−6M of compound, compared to activity in absence of compound, PfHPPD-G336W", "result": 92, "unit": "%"},
      {"measurement": "tolerance/sensitivity of the HPPD to the inhibitor compared to Arabidopsis thaliana HPPD", "setting": "[5]; PfHPPD-G336W versus AtHPPD, identical experimental conditions", "result": "less sensitive"},
      {"measurement": "number of plants with Damage 0 (No damage)", "setting": "[6]", "result": 0},
      {"measurement": "number of plants with Damage 1 (Light and transient damage)", "setting": "[6]", "result": 0},
      {"measurement": "number of plants with Damage 2 (Strong damage)", "setting": "[6]", "result": 0},
      {"measurement": "number of plants with Damage 3 (Very strong damage)", "setting": "[6]", "result": 10},
      {"measurement": "tolerance of the transgenic tobacco plants (symptoms due to application of the herbicide)", "setting": "[7]; T1 plants sprayed, evaluated one week after application", "result": "good tolerance"},
      {"measurement": "sensitivity of transgenic tobacco plants compared to wild type (wt) plants", "setting": "[7]; all tested independent lines, agronomically relevant dose", "result": "less sensitive"},
      {"measurement": "tolerance of transgenic plants compared to the wild-type soybean plants", "setting": "[8]", "result": "superior tolerance"}
    ]}
  ]
}
